One assay addresses Bcl-2-like protein 10 (Homo sapiens, UniProt Q9HD36). Nature of the assay: displacers of TR3 peptide from Bcl-B, primary screen, selectivity assay for Bfl-1 inhibitor project, biochemical, fluorescence polarization, FITC-TR3 peptide (AID 748). (Fluorescence polarisation rises when a labelled molecule tumbles more slowly, as on binding a larger partner.)
The nature of the next assay: cells. In kind it is functional, cell-based.
A short description of assay [1]: inhibitors of firefly luciferase expression or activity, dose response, H4 neuroglioma cells, luminescence (AID 1990). In kind it is functional, cell-based.
A short description of assay [2]: inhibitors of SNCA 5'UTR-driven translation, confirmation, luminescence, H4 neuroglioblastoma cells, dose confirmation (AID 2454).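 Also: H4 neuroglioblastoma cells carrying an alpha-synuclein 5'UTR luciferase reporter; potency for inhibition of the luciferase signal.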 In kind it is functional, cell-based.
Assay [3] in a line: inhibitors of SNCA 5'UTR-driven reporter translation, confirmation, H4 neuroglioma cells, luminescence (AID 1988). In kind it is functional, cell-based.
The nature of assay [4]: luciferase reporter signal reduction – luminescence, H4-C neuroglioblastoma cells, dose response (AID 2458).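 Also: H4 neuroglioblastoma cells stably carrying a luciferase reporter gene fusion.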 In kind it is functional, cell-based. For orientation: Reporter assays use an easily measured gene product as a stand-in for the process of interest.
Assay [5] can be described thus: Luminescence Cell-Based Dose Response HTS to Identify Inhibitors of 5'UTR Stem-Loop Driven Prion Protein mRNA Translation in H4 Neuroglioblastoma Cells. [Related pubchem assays: 1827 (Project Summary), 1813 (Primary HTS)]. In kind it is functional.
The target in assay [6] is T1, Sphingosine 1-phosphate receptor 4 (Homo sapiens, UniProt O95977).
T1 sequence (O95977 whole entry): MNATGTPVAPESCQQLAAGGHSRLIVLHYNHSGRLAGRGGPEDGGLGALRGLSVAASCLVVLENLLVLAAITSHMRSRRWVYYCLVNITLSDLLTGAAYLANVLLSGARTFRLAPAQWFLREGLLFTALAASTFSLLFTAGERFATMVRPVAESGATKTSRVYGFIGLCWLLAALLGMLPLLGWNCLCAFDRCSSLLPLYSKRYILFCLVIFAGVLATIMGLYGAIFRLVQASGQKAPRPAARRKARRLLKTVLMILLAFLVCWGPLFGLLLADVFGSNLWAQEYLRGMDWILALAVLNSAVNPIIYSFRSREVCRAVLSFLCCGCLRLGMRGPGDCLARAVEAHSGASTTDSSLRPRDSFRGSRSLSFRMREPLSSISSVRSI
Kind of assay: Late-stage fluorescence dose response cell-based assay to identify agonists of the Sphingosine 1-Phosphate Receptor 4 (S1P4): purchased compounds EC50. [Related pubchem assays (depositor defined):AID1509, AID1523, AID1563, AID1686, AID1701, AID1801]. In kind it is functional.

Assay [7] can be described thus: cytotoxicity in HEK-293T cells, dose response, cytotoxicity control for BCR NF-kB inhibitor project, luminescence, B-cell screen hits (AID 489021).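 Also: HEK-293T cells carrying an NF-kB luciferase reporter; cells exposed to compound for about 14 hours before viability readout.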 In kind it is functional, cell-based.
In assay [8] the target is T2, Heat shock factor protein 1 (Mus musculus, UniProt P38532).
T2 sequence (P38532 whole entry): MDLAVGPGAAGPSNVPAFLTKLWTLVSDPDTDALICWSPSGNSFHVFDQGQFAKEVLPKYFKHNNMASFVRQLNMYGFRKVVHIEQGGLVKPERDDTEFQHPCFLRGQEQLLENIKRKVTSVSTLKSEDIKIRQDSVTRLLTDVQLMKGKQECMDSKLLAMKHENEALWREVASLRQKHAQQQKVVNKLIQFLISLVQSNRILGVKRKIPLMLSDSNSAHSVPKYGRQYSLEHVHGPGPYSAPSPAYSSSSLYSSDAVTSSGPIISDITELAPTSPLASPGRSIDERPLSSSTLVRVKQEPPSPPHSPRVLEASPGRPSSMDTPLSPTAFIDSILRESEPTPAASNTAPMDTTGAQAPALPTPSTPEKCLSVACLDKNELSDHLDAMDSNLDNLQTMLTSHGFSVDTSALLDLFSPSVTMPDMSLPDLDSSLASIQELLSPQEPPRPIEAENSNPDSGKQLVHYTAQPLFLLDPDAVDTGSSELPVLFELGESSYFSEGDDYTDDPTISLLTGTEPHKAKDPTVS
Nature of the assay: HSF1 potentiators in luciferase reporter cells, confirmation, cell-based, NIH3T3, luminescence, dose retest (AID 435004).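 Also: stress induced by proteasome inhibitor MG132 added 30 min after compound; luciferase reporter driven by HSF1 response element in NIH3T3 cells; actives raise luminescence as potentiators of the MG132 stress response.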 In kind it is functional.

The target in the next assay is Hexokinase (Trypanosoma brucei, UniProt Q38C41). Nature of the assay: Confirmation assay for inhibitors of Trypanosoma brucei hexokinase 1-Analogue-first series. [Related pubchem assays (depositor defined):AID1430, AID1632, AID2516, AID2560, AID2579, AID2600, AID449725, AID492951]. In kind it is functional.
Assay [9] addresses T3, Type-1 angiotensin II receptor (Homo sapiens, UniProt P30556).
T3 sequence (P30556 whole entry): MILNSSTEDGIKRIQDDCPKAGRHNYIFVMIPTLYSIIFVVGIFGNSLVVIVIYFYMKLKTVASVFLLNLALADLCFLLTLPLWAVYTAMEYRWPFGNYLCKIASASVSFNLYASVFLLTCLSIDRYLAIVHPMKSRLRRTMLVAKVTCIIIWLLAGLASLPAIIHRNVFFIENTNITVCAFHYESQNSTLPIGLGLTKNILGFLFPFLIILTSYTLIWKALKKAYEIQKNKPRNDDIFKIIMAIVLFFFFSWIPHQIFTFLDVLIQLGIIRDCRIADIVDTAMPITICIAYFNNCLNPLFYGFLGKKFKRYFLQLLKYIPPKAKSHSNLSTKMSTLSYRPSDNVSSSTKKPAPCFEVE
Kind of assay: AT1 receptor agonists, dose response, selectivity assay for APJ receptor agonist project, cell-based, uHTS hits (AID 488865).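 Also: beta-arrestin recruitment to AT1 measured by enzyme fragment complementation luminescence.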 In kind it is functional.

Assay [10] concerns the target Lysosomal acid glucosylceramidase (Homo sapiens, UniProt P04062). Kind of assay: Dose response cell-based high throughput screening assay to identify enhancers of beta-glucosidase activity. [Related pubchem assays: 784 ]. In kind it is functional.
The target of assay [11] is T4, Kappa-type opioid receptor (Homo sapiens, UniProt P41145). In kind it is functional.
The test system of the next assay is Vero. Nature of the assay: cells. In kind it is functional. The conditions noted are these: Chlorocebus sabaeus.
The target in assay [12] is T4, Kappa-type opioid receptor. In kind it is functional. The source holds these as a separate data set.
In another assay the test system is Streptococcus. Kind of assay: Group A Streptococcus viability loss, dose response, counter-screen for streptokinase expression inhibitor project, luminescence, BacTiterGlo (AID 1915).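 Also: potency for reduction of bacterial viability or growth.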 In kind it is functional, organism-based. Background: Counterscreens check selectivity or assay interference.
For assay [13], the system named is Streptococcus sp. 'group A'. Nature of the assay: growth inhibition of control SK(-) GAS strain, dose response, counter-screen for streptokinase expression inhibitor project, luminescence, kanamycin, BacTiterGlo, confirmation (AID 1900). In kind it is functional, organism-based.
Assay [14] has as its target Heat shock protein HSP 90-alpha (Homo sapiens, UniProt P07900). In kind it is functional, organism-based.
A further assay deals with INS1. Kind of assay: beta cell apoptosis inhibitors, cytokine rescue, dose response, luminescence, retest (AID 449756).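 Also: cell death triggered by IL-1 beta plus TNF-alpha plus IFN-gamma mixture; protective hits raise ATP signal compared with cytokine alone wells.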 In kind it is functional, cell-based. The conditions noted are these: Rattus norvegicus.
For a further assay, the target named is Beta-galactosidase (Escherichia coli, UniProt Q8VNN2). In kind it is functional.
Assay [15] concerns the target T5, Alkaline phosphatase, tissue-nonspecific isozyme (Homo sapiens, UniProt P05186).
T5 sequence (P05186 whole entry): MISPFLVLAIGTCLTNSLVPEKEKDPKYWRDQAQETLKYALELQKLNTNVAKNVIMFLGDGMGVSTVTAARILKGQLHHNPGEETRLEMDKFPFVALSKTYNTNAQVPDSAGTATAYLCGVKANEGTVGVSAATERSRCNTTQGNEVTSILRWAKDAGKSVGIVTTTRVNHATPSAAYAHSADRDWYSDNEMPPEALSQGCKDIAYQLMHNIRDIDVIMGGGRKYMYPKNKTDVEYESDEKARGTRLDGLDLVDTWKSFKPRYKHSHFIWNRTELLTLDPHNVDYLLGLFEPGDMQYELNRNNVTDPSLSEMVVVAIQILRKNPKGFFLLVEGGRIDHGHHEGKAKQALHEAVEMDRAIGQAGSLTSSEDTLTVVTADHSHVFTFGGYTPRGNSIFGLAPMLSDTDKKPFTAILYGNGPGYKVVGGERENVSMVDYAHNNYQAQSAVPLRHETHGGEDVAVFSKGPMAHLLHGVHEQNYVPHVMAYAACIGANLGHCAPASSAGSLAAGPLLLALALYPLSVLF
Nature of the assay: TNAP enzyme inhibition by screening hits, dose response, selectivity assay for mouse IAP inhibitor project, biochemical, human TNAP, uHTS hits (AID 488906). In kind it is functional.

For assay [16], the target named is Intestinal-type alkaline phosphatase (Homo sapiens, UniProt P09923). Nature of the assay: activation of human intestinal alkaline phosphatase – biochemical, dose response (AID 488873). In kind it is functional.
Assay [17] concerns the target Intestinal-type alkaline phosphatase (Mus musculus, UniProt P24822). Kind of assay: PubChem AID 488785. In kind it is functional.
Assay [18] has as its target FAD-linked sulfhydryl oxidase ALR (Homo sapiens, UniProt P55789). Kind of assay: inhibitors of human ALR sulfhydryl oxidase, dose response, biochemical, H2O2 detection, luminescence, cherry-pick (AID 493248).

The text below walks through data of ChEMBL document CHEMBL1201862, “PubChem BioAssay data set” (2004).

Calls of active or inactive are those of the source. Where only a bound is given, the exact number is not on record here.

T4 sequence (P41145 whole entry): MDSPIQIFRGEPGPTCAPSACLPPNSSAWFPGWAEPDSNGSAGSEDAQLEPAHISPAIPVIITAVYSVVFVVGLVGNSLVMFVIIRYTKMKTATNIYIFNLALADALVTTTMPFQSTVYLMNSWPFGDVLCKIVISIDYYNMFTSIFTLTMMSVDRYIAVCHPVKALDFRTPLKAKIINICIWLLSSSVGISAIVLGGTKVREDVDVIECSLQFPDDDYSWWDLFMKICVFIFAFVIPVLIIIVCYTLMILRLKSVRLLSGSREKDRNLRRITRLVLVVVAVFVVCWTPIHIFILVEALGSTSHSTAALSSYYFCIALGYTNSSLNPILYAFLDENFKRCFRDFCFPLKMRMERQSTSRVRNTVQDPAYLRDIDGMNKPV
Lysosomal acid glucosylceramidase, sequence (P04062 whole entry): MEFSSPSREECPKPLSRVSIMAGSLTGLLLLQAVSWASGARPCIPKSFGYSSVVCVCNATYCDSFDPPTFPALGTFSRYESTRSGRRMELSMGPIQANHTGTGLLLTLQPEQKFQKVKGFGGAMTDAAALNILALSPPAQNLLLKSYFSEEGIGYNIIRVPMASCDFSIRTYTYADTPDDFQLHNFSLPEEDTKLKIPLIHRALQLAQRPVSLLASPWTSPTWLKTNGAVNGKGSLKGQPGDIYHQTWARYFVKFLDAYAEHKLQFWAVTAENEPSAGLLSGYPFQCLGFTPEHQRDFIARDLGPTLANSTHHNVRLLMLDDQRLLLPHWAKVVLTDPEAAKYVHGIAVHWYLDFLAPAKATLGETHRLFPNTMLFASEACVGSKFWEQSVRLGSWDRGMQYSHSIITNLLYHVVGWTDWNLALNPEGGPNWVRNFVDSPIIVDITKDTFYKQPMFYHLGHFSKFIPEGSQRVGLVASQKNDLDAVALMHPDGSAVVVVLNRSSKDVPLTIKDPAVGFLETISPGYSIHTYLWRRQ
Hexokinase, sequence (Q38C41 whole entry): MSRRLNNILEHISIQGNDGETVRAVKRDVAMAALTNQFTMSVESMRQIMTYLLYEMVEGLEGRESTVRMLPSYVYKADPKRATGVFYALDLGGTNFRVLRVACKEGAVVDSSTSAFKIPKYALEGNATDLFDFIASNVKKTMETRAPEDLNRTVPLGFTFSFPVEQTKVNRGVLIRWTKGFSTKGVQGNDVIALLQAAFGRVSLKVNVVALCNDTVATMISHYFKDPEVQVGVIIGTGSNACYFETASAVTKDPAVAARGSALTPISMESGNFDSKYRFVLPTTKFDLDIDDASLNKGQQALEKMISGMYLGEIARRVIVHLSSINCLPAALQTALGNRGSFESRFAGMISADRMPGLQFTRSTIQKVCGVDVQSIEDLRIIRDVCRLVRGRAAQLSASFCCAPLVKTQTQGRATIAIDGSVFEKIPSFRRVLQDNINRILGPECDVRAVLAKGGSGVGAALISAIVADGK
FAD-linked sulfhydryl oxidase ALR, sequence (P55789 whole entry): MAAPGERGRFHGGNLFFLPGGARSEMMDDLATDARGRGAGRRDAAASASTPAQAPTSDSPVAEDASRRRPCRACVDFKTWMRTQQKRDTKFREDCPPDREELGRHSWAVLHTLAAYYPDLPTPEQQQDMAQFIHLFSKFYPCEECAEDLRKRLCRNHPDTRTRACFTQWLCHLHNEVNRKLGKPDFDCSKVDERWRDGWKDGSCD
Beta-galactosidase, sequence (Q8VNN2 whole entry): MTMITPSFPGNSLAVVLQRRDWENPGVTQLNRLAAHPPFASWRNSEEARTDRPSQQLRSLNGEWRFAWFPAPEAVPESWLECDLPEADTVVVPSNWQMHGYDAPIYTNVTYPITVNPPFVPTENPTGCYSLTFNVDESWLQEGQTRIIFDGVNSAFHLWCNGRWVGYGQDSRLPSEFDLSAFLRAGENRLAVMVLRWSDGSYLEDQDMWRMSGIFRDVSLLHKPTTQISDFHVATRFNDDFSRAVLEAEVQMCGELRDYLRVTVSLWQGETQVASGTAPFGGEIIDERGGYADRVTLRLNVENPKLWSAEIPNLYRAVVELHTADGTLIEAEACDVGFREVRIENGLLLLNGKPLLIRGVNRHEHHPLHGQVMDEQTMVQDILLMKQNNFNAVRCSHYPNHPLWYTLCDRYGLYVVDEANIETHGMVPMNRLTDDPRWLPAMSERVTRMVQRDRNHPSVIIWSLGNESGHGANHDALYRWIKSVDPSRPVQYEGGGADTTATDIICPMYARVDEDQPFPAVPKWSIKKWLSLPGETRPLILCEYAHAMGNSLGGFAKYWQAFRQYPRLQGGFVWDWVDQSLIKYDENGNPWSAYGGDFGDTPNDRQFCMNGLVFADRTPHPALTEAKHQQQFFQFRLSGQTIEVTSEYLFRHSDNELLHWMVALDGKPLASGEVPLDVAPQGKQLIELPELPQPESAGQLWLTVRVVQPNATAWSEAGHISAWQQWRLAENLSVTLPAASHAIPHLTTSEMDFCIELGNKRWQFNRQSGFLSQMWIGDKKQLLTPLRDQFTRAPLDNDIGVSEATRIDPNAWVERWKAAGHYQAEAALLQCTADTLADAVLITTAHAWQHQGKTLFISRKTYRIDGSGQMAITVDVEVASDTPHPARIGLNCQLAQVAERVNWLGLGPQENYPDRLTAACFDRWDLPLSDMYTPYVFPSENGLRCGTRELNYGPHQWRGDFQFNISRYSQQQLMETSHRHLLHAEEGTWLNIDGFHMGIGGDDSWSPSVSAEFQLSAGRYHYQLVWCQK
Intestinal-type alkaline phosphatase (Homo sapiens, UniProt P09923), sequence (P09923 whole entry): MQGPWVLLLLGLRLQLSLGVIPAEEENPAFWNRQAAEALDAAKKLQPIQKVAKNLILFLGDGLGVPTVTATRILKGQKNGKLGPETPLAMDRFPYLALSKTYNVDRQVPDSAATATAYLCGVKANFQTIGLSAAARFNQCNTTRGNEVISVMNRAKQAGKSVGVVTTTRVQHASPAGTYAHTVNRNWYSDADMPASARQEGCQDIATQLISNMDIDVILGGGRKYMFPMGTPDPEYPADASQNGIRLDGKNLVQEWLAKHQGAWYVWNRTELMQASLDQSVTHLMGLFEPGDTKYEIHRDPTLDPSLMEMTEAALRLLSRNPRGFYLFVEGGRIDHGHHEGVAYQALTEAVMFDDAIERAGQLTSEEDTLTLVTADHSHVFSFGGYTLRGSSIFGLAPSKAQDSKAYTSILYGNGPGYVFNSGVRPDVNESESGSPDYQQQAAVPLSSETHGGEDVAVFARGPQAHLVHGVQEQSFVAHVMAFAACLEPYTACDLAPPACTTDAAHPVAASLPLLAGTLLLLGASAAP
Intestinal-type alkaline phosphatase (Mus musculus, UniProt P24822), sequence (P24822 whole entry): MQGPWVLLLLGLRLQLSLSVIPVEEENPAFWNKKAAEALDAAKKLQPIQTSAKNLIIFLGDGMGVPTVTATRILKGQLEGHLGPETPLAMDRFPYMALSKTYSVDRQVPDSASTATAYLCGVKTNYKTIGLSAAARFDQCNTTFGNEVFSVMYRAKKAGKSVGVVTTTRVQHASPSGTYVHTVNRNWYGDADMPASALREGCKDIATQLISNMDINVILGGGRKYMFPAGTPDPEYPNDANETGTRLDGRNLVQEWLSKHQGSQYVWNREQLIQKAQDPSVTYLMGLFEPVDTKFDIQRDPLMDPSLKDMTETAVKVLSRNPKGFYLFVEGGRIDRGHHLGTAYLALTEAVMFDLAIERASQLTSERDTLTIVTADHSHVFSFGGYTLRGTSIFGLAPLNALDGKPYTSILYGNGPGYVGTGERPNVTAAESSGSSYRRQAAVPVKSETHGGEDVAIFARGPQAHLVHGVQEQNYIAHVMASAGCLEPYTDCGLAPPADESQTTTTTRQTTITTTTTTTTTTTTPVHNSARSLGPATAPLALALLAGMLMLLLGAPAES
Bcl-2-like protein 10, sequence (Q9HD36 whole entry): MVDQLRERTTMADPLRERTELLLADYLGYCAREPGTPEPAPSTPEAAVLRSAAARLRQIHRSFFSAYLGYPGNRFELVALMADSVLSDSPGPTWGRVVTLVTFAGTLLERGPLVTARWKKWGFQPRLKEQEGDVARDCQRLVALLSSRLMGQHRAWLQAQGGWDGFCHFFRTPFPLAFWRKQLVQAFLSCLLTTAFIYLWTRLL

`Cc1ccc(OCCC(=O)OCC(=O)Nc2ccc(Cl)cn2)cc1`: on Bcl-2-like protein 10, the IC50 was 72.8 µM (inactive).

Turning to `O=Cc1cn(Cc2ccc([N+](=O)[O-])cc2)c2ccccc12`, the EC50 is 0.466 µM (active) in “cells”; 5.79 µM (active) in [1]; 1.02 µM (active) in assay [2]; 0.233 µM (active) in assay [3]; 1.25 µM (active) in assay [4]; < 0.1 µM (active) in assay [5].

Take `Cc1cc(C)cc(OCCOc2ccc(C)nc2[N+](=O)[O-])c1`: the EC50 in [6] is > 50 µM (inactive).

For `COc1ccc(C(=O)n2nc(-c3ccc(Cl)cc3)nc2N)cc1OC`, the IC50 in assay [7] was > 80 µM (inactive). The EC50 in assay [8] is > 260 µM (inconclusive).

With `CCc1ccc(C(=O)Nc2cc(Cl)ccc2C(=O)OC)cc1`, the IC50 on Hexokinase was > 25 µM (inactive).

As to `COc1ccc(-c2nn(C)c(=O)c3ccccc23)cc1NS(C)(=O)=O`, the IC50 in assay [7] is > 80 µM (inactive).

Consider `O=C(Cn1ncc2c3ccccc3nc-2c1O)Nc1ccc(CN2CCCCC2)cc1`, for which the EC50 in assay [9] is > 100 µM (inactive).

Regarding `C/N=C1/SC(CC(=O)Nc2cccc(C(F)(F)F)c2)C(=O)N1C` (stereo not given), the EC50 in [10] is reported as > 50 µM (not active).

As to `O=c1c2cc(F)c(F)cc2sn1-c1ccccc1`, on Hexokinase, the IC50 was 2.23 µM (active).

Take `COc1ccc(N=Nc2ccc(O)c3ncccc23)cc1`: the IC50 is over 32 µM in assay [11] and 5.64 µM (active) in assay [12]. Besides, the CC50 with Vero is 6.3 µM (active). Further, the EC50 in the assay “cells” is 1.65 µM (active); in [1] it was 8.21 µM (active); with Streptococcus it was 2.5 µM (active); in [2], > 12 µM (not active); in assay [3], < 0.1 µM (active); in [13] it was 0.191 µM (active). Also, the EC50 is > 12 µM (not active) in assay [4], 6.71 µM (active) in assay [5] and 24.6 µM (active) on Beta-galactosidase. Further, the AC50 in assay [14] is 3.34 µM (active); with INS1, 1.16 µM (active).

For the compound `CCCc1cc(O)nc(SCC(=O)CSc2nc(O)cc(CCC)n2)n1`, in [10], the EC50 was > 50 µM (not active).

With `Cc1ccc(OC(C)C(=O)Nc2cc(Cl)ccc2Cl)c([N+](=O)[O-])n1` (stereo not given), the EC50 in assay [6] was > 50 µM (inactive).

Regarding `Cc1ccc(C)c(S(=O)(=O)Nc2ccc(O)c(Sc3nnc[nH]3)c2)c1`, the IC50 is 5.46 µM (active) in assay [15] and 2.75 µM (active) in [17]. The EC50 in assay [16] is 11.9 µM (active). In addition, the AC50 in assay [18] is 2.05 µM (active).

The IC50 is the concentration that gives 50% inhibition. By EC50 is commonly meant the midpoint of the concentration-response curve. For orientation: CC50 means the concentration at which the toxic effect on the cells reaches its halfway point. What is called AC50 is the concentration at which the activity in the assay is half-maximal.
